Assay results: ChEMBL document CHEMBL4000244, “Probing A-form DNA: A fluorescent aminosugar probe and dual recognition by anthraquinone-neomycin conjugates” (Bioorg Med Chem, 2017)

Legend:
[1] = Binding affinity to 5'-GGCCCCGG-3' DNA hairpin assessed as change in fluorescence intensity at 1 uM after 45 mins by fluorescence quenching analysis relative to control
[2] = Binding affinity to 5'-GCCCCGGC-3' DNA hairpin assessed as change in fluorescence intensity at 1 uM after 45 mins by fluorescence quenching analysis relative to control
[3] = Binding affinity to 5'-GCCCCGGG-3' DNA hairpin assessed as change in fluorescence intensity at 1 uM after 45 mins by fluorescence quenching analysis relative to control
[4] = Binding affinity to 5'-GGGGGGGC-3' DNA hairpin assessed as change in fluorescence intensity at 1 uM after 45 mins by fluorescence quenching analysis relative to control
[5] = Binding affinity to 5'-GGGGGCCG-3' DNA hairpin assessed as change in fluorescence intensity at 1 uM after 45 mins by fluorescence quenching analysis relative to control
[6] = Binding affinity to 5'-GGGCCCGC-3' DNA hairpin assessed as change in fluorescence intensity at 1 uM after 45 mins by fluorescence quenching analysis relative to control
[7] = Binding affinity to 5'-GCCCGGCC-3' DNA hairpin assessed as change in fluorescence intensity at 1 uM after 45 mins by fluorescence quenching analysis relative to control
[8] = Binding affinity to 5'-GGGCCGGG-3' DNA hairpin assessed as change in fluorescence intensity at 1 uM after 45 mins by fluorescence quenching analysis relative to control
[9] = Binding affinity to 5'-CCCCCGCC-3' DNA hairpin assessed as change in fluorescence intensity at 1 uM after 45 mins by fluorescence quenching analysis relative to control
[10] = Binding affinity to 5'-CCCGGGCC-3' DNA hairpin assessed as change in fluorescence intensity at 1 uM after 45 mins by fluorescence quenching analysis relative to control
[11] = Binding affinity to 5'-CCGGGCCG-3' DNA hairpin assessed as change in fluorescence intensity at 1 uM after 45 mins by fluorescence quenching analysis relative to control
[12] = Binding affinity to 5'-GCGGCCGG-3' DNA hairpin assessed as change in fluorescence intensity at 1 uM after 45 mins by fluorescence quenching analysis relative to control
[13] = Binding affinity to 5'-GCCCGGGC-3' DNA hairpin assessed as change in fluorescence intensity at 1 uM after 45 mins by fluorescence quenching analysis relative to control
[14] = Binding affinity to 5'-GGCGGGGG-3' DNA hairpin assessed as change in fluorescence intensity at 1 uM after 45 mins by fluorescence quenching analysis relative to control
[15] = Binding affinity to 5'-CGCGGCCG-3' DNA hairpin assessed as change in fluorescence intensity at 1 uM after 45 mins by fluorescence quenching analysis relative to control
[16] = Binding affinity to 5'-GGCGCCCG-3' DNA hairpin assessed as change in fluorescence intensity at 1 uM after 45 mins by fluorescence quenching analysis relative to control
[17] = Binding affinity to 5'-GCCCGCCG-3' DNA hairpin assessed as change in fluorescence intensity at 1 uM after 45 mins by fluorescence quenching analysis relative to control
[18] = Binding affinity to 5'-GGGCCGGC-3' DNA hairpin assessed as change in fluorescence intensity at 1 uM after 45 mins by fluorescence quenching analysis relative to control
[19] = Binding affinity to 5'-CCCGGCGC-3' DNA hairpin assessed as change in fluorescence intensity at 1 uM after 45 mins by fluorescence quenching analysis relative to control
[20] = Binding affinity to 5'-GCGGGCGG-3' DNA hairpin assessed as change in fluorescence intensity at 1 uM after 45 mins by fluorescence quenching analysis relative to control
[21] = Binding affinity to 5'-CGCCGGGG-3' DNA hairpin assessed as change in fluorescence intensity at 1 uM after 45 mins by fluorescence quenching analysis relative to control
[22] = Binding affinity to 5'-CGGCCGCC-3' DNA hairpin assessed as change in fluorescence intensity at 1 uM after 45 mins by fluorescence quenching analysis relative to control
[23] = Binding affinity to 5'-GCGGCGGC-3' DNA hairpin assessed as change in fluorescence intensity at 1 uM after 45 mins by fluorescence quenching analysis relative to control
[24] = Binding affinity to 5'-CGCGGGGC-3' DNA hairpin assessed as change in fluorescence intensity at 1 uM after 45 mins by fluorescence quenching analysis relative to control
[25] = Binding affinity to 5'-CGGCCGCG-3' DNA hairpin assessed as change in fluorescence intensity at 1 uM after 45 mins by fluorescence quenching analysis relative to control
[26] = Binding affinity to 5'-CGCGCCCG-3' DNA hairpin assessed as change in fluorescence intensity at 1 uM after 45 mins by fluorescence quenching analysis relative to control
[27] = Binding affinity to 5'-GCCGGGCG-3' DNA hairpin assessed as change in fluorescence intensity at 1 uM after 45 mins by fluorescence quenching analysis relative to control
[28] = Binding affinity to 5'-CCCGCGCG-3' DNA hairpin assessed as change in fluorescence intensity at 1 uM after 45 mins by fluorescence quenching analysis relative to control
[29] = Binding affinity to 5'-CCGCCGCC-3' DNA hairpin assessed as change in fluorescence intensity at 1 uM after 45 mins by fluorescence quenching analysis relative to control
[30] = Binding affinity to 5'-CGCGCGCC-3' DNA hairpin assessed as change in fluorescence intensity at 1 uM after 45 mins by fluorescence quenching analysis relative to control
[31] = Binding affinity to 5'-CGGGCGCC-3' DNA hairpin assessed as change in fluorescence intensity at 1 uM after 45 mins by fluorescence quenching analysis relative to control
[32] = Binding affinity to 5'-CCGCCGGC-3' DNA hairpin assessed as change in fluorescence intensity at 1 uM after 45 mins by fluorescence quenching analysis relative to control
[33] = Binding affinity to 5'-GCCGGCGG-3' DNA hairpin assessed as change in fluorescence intensity at 1 uM after 45 mins by fluorescence quenching analysis relative to control
[34] = Binding affinity to 5'-GGCGGCCG-3' DNA hairpin assessed as change in fluorescence intensity at 1 uM after 45 mins by fluorescence quenching analysis relative to control
[35] = Binding affinity to 5'-CCGGCCGC-3' DNA hairpin assessed as change in fluorescence intensity at 1 uM after 45 mins by fluorescence quenching analysis relative to control
[36] = Binding affinity to 5'-GGGCGCCC-3' DNA hairpin assessed as change in fluorescence intensity at 1 uM after 45 mins by fluorescence quenching analysis relative to control

Activity [1]: 20.2% | Activity [2]: 28.6% | Activity [3]: 28.8% | Activity [4]: 29.8% | Activity [5]: 29.9% | Activity [6]: 30.6% | Activity [7]: 36.2% | Activity [8]: 37.5% | Activity [9]: 39.1% | Activity [10]: 40.2% | Activity [11]: 40.2% | Activity [12]: 40.9% | Activity [13]: 41.1% | Activity [14]: 41.5% | Activity [15]: 42% | Activity [16]: 43.7% | Activity [17]: 43.8% | Activity [18]: 44.4% | Activity [19]: 44.8% | Activity [20]: 45% | Activity [21]: 47.3% | Activity [22]: 47.7% | Activity [23]: 47.7% | Activity [24]: 48.3% | Activity [25]: 48.6% | Activity [26]: 48.8% | Activity [27]: 49.7% | Activity [28]: 51.8% | Activity [29]: 52.2% | Activity [30]: 52.2% | Activity [31]: 52.5% | Activity [32]: 52.6% | Activity [33]: 53.8% | Activity [34]: 56.4% | Activity [35]: 57.7% | Activity [36]: 65.9%
SMILES: NCC1O[C@H](O[C@H]2[C@@H](O)[C@H](O[C@@H]3[C@@H](O)[C@H](N)C[C@H](N)[C@H]3O[C@H]3O[C@H](CN)[C@@H](O)[C@H](O)[C@H]3N)O[C@@H]2CSCCNC(=O)CCSCC(=O)Nc2ccc(-c3c4ccc(=O)cc-4oc4cc(O)ccc34)c(C(=O)O)c2)[C@H](N)[C@@H](O)[C@@H]1O (stereo partly specified)
